# Calls of active or inactive are those of the source.
# Key:
# [1] = viability loss of HPDE-C7K cells – cell-based, fluorescence, HTS, primary screen (AID 431); format: functional; details: Homo sapiens
# [2] = NIH-3T3 fibroblast cytotoxicity, dose response, cytotoxicity control, cell-based, fluorescence, Alamar Blue, secondary assay (AID 2327); format: functional;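 further: NIH-3T3 mouse fibroblasts cultured with fluconazole at 8 µg/mL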
# Nonstructural protein 1 = Nonstructural protein 1 (Influenza A virus, UniProt Q194T2); format: functional, Influenza A virus (A/California/07/2009(H1N1))
# [3] = microbe, parasite or virus in culture; format: functional; details: Mycobacterium tuberculosis
# HT-1080 = experiment: HT1080 cell viability loss – fluorescence readout (AID 620); format: functional, cell-based; details: Homo sapiens
# [4] = molecular target: Luciferin 4-monooxygenase (Photinus pyralis, UniProt P08659); experiment: Counter Screen for Luciferase-based Assay Positives. [Related pubchem assays: 620, 618, 411 ]
# [5] = viability of HCT116 lacking mutant beta-catenin – cell-based, human colon tumor, dose response (AID 1045); format: functional;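 further: HCT116 colon tumor cells with beta catenin knocked out; cells exposed to compound for 60 hours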
# [6] = molecular target: T1, Ubiquitin-conjugating enzyme E2 N (Homo sapiens, UniProt P61088); format: functional;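 further: Dose-response confirmation in a TR-FRET assay detecting UBC13-driven polyubiquitin chain formation, inhibition measured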
# T1 sequence (P61088 whole entry): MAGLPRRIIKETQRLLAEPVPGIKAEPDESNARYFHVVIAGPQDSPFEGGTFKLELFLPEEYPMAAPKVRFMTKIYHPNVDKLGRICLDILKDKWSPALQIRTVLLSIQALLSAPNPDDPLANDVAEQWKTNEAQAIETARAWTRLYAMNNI
# [7] = fluconazole-exposed Candida albicans growth modulators – fluorescence, retest, confirmation (AID 2467); format: functional, cell-based
# [8] = viability of PTEN-deleted HCT116 cells – cell-based, HCT116 PTEN knockout, dose response (AID 1047); format: functional;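 further: HCT116 colon tumor cells with PTEN knocked out; cells exposed to compound for 60 hours before readout; potency for loss of cell viability measured by luminescence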
# Beta-galactosidase = Beta-galactosidase (Escherichia coli, UniProt Q8VNN2); experiment: detection-enzyme interference by beta-gal modulators – biochemical, E. coli enzyme, set 3, artefact control for CCR6 antagonist project, dose response (AID 504712); format: functional
# [9] = HPDE-C7 pancreatic duct cell viability loss – fluorescence, HTS (AID 430); format: functional, cell-based; details: Homo sapiens
# [10] = molecular target: Voltage-dependent T-type calcium channel subunit alpha-1H (Homo sapiens, UniProt O95180); experiment: human CACNA1H calcium influx blockade – cell-based, synthetic library set 1, calcium flux (AID 493022); format: functional
# [11] = molecular target: Eukaryotic translation initiation factor 4E (Mus musculus, UniProt P63073); experiment: blockers of eIF4G binding by eIF4E – biochemical, TR-FRET, dose response (AID 855); format: functional;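 further: potency for disrupting eIF4E binding to eIF4GI seen as loss of FRET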
# [12] = molecular target: T2, Tyrosine-protein phosphatase non-receptor type 22 (Homo sapiens, UniProt Q9Y2R2); experiment: PTPN22 lymphoid phosphatase activity blockers – biochemical, fluorescence intensity, uHTS (AID 1779)
# T2 sequence (Q9Y2R2 whole entry): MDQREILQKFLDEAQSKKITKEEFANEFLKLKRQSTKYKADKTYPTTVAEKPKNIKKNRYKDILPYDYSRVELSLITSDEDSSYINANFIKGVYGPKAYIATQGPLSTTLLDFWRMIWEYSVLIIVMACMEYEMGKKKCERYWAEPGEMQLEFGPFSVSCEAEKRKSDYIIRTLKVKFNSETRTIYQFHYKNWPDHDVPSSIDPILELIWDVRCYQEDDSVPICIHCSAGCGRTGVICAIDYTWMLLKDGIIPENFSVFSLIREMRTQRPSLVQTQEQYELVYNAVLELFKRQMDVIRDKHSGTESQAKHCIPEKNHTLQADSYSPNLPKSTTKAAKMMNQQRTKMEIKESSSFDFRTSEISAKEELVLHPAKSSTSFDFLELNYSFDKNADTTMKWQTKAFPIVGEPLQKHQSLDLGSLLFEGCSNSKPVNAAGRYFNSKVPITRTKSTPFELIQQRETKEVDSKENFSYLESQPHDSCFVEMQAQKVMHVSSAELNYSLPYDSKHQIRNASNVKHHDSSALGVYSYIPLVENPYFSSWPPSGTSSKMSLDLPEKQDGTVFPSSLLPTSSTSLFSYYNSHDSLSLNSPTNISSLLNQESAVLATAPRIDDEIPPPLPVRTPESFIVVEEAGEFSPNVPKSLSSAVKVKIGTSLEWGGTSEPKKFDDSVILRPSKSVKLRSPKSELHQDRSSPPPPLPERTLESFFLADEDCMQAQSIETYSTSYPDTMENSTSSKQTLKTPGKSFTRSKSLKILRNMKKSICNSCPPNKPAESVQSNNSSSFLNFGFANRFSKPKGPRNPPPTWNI
# [13] = molecular target: T3, Tyrosine-protein phosphatase non-receptor type 7 (Homo sapiens, UniProt P35236); format: functional
# T3 sequence (P35236 whole entry): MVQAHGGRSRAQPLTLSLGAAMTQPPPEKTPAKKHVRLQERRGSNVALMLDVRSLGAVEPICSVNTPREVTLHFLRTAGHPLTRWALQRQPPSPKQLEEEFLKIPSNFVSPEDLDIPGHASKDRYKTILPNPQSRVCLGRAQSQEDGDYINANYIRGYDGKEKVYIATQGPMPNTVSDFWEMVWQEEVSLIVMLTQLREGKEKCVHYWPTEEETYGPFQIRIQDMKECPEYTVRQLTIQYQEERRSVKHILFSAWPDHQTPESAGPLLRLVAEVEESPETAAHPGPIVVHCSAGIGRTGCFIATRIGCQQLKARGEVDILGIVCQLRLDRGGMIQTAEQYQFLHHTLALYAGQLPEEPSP
# [14] = molecular target: T4, Voltage-gated N-type calcium channel alpha-1B subunit/Amyloid beta A4 precursor protein-binding family A member 1 (Homo sapiens, UniProt Q00975+Q02410); format: protein assay
# [15] = molecular target: T2, Tyrosine-protein phosphatase non-receptor type 22; format: functional
# [16] = molecular target: T2, Tyrosine-protein phosphatase non-receptor type 22; format: functional; remark: listed apart in the source
# [17] = molecular target: Envelope glycoprotein gp160 (Human immunodeficiency virus 1, UniProt Q6QLK5); experiment: cell-free HIV fusion peptide-binding blockers – biochemical, uHTS, fluorescence dequenching, […] (AID 1986)
# [18] = molecular target: T4, Voltage-gated N-type calcium channel alpha-1B subunit/Amyloid beta A4 precursor protein-binding family A member 1; format: protein assay; remark: listed apart in the source
# Large T antigen = Large T antigen (Simian virus 40, UniProt P03070); format: functional, Betapolyomavirus macacae;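 further: Confirmatory-stage PubChem screen for compounds that inhibit SV40 T antigen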
# [19] = molecular target: DNA dC->dU-editing enzyme APOBEC-3A (Homo sapiens, UniProt P31941); experiment: A3A deaminase inhibition for selectivity – biochemical, dose response (AID 504722); format: functional
# [20] = molecular target: FAD-linked sulfhydryl oxidase ALR (Homo sapiens, UniProt P55789); experiment: ALR-catalysed DTT oxidation blockers – biochemical, H2O2 detection, luminescence, cherry-pick, dose response (AID 493248)
# [21] = molecular target: DNA dC->dU-editing enzyme APOBEC-3G (Homo sapiens, UniProt Q9HC16); experiment: Dose Response confirmation of small molecule APOBEC3G DNA Deaminase Inhibitors via a fluorescence-based single-stranded DNA deaminase assay. [Related pubchem assays (depositor defined):AID493012, AID493028]; format: functional
# [22] = molecular target: T5, Short transient receptor potential channel 4 (Mus musculus, UniProt Q9QUQ5); experiment: potentiation of DAMGO-evoked TRPC4 calcium signal – cell-based, HEK293 TRPC4/mu-opioid, Fluo-4 calcium, EC20 DAMGO, dose response (AID 434941); format: functional
# T5 sequence (Q9QUQ5 whole entry): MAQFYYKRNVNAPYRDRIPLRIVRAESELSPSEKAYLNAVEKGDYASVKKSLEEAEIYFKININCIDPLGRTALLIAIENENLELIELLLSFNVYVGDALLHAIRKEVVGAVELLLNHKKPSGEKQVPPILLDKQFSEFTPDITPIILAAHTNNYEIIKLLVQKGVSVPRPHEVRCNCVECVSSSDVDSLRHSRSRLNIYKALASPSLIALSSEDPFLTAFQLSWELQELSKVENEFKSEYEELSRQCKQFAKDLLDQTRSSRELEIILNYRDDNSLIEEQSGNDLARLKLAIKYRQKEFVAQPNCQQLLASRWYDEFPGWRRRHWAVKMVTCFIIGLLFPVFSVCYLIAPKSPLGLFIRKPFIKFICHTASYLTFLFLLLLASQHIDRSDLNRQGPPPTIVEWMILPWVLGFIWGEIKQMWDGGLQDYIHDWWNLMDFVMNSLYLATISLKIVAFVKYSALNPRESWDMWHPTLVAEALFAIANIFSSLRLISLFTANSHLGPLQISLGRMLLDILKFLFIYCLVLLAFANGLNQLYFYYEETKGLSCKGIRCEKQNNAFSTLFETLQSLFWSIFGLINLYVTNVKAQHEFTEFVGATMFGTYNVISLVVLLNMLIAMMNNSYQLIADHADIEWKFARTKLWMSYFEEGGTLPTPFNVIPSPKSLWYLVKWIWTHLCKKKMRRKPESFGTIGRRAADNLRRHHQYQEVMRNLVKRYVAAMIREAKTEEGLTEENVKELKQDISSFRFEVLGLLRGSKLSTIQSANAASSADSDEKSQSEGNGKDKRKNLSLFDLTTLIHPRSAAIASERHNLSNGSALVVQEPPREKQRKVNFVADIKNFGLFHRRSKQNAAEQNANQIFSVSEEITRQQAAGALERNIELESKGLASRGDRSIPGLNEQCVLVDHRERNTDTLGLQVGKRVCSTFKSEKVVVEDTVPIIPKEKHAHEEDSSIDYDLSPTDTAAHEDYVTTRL
# T4 sequence (Q00975 whole entry): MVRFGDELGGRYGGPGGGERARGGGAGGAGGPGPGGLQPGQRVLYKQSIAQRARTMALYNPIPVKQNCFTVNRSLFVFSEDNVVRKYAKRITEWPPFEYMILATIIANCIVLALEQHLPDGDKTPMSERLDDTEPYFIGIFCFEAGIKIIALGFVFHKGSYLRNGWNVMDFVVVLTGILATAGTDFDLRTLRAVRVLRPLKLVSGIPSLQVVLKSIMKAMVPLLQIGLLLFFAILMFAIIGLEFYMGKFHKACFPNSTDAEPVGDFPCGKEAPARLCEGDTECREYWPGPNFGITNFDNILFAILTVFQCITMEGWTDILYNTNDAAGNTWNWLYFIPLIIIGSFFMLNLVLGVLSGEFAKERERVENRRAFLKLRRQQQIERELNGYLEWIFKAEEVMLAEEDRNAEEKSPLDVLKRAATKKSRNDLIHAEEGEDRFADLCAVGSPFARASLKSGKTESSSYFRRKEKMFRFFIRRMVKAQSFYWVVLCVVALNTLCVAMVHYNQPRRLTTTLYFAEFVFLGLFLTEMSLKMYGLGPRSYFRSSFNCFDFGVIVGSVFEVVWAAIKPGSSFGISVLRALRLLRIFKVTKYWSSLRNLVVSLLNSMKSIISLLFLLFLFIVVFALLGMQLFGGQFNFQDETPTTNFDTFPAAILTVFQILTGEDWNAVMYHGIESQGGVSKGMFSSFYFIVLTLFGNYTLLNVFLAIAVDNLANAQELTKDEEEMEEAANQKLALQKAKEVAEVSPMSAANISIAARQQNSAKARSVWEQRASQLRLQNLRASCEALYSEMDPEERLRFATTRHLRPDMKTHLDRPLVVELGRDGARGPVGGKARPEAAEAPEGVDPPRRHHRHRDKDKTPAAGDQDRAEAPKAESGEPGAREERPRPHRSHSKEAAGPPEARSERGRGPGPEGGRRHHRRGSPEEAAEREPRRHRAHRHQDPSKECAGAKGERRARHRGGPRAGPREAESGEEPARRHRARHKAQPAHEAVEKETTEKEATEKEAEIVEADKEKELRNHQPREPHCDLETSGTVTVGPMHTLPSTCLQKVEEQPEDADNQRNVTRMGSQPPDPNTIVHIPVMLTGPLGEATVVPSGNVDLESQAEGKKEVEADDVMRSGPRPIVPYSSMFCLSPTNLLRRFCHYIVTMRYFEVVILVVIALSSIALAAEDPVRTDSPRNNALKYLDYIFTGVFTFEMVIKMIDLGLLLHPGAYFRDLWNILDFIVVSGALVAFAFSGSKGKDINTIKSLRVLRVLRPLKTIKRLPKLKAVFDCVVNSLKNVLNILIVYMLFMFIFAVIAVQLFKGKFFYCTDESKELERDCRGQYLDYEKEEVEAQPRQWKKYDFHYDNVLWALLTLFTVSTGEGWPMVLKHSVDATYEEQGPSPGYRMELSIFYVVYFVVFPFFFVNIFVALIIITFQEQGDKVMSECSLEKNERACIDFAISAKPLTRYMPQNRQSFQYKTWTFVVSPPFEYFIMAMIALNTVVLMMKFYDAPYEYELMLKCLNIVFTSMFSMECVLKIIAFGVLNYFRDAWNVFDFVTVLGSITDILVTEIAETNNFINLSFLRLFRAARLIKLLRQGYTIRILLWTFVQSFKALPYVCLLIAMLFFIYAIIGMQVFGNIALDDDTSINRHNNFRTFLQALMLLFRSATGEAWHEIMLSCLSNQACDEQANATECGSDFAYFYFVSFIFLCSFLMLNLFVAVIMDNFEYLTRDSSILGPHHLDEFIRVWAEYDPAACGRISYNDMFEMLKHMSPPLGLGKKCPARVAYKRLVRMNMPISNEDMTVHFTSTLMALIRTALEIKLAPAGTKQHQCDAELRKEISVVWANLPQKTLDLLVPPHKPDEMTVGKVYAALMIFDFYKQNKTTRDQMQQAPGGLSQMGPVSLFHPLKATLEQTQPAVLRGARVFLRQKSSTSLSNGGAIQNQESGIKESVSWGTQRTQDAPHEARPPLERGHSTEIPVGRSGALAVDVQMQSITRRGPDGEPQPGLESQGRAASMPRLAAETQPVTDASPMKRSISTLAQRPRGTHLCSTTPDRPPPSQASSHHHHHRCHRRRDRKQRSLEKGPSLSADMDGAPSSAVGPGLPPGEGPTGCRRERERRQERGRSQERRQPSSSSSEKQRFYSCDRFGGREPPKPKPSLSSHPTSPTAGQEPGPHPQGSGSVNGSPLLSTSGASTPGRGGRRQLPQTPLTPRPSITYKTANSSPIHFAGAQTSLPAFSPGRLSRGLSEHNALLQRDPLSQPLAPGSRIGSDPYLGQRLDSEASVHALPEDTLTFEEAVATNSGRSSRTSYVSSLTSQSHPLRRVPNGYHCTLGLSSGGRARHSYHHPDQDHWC
# T4 sequence (Q02410 whole entry): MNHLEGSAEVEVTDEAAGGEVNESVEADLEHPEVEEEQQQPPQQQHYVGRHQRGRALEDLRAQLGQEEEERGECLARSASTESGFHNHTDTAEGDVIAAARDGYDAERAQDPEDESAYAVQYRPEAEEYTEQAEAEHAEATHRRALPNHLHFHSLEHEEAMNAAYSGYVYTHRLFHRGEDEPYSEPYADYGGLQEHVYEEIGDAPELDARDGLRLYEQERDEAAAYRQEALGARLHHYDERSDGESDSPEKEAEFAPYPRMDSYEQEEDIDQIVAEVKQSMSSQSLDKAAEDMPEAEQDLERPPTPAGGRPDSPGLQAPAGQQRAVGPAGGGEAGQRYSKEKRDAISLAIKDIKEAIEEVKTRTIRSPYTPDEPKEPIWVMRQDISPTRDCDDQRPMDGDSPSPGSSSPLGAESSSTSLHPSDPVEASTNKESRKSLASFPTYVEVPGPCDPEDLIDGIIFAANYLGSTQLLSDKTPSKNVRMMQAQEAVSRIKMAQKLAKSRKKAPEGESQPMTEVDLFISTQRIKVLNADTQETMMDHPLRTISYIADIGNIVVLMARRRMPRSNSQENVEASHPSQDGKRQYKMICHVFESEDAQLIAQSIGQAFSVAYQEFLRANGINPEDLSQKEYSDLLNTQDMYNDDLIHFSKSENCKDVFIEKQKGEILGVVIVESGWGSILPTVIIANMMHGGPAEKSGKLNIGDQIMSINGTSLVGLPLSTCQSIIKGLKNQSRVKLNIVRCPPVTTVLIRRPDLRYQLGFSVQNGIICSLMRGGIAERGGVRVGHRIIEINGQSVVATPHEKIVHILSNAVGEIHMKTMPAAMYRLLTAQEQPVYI
# Chain of DNA dC->dU-editing enzyme APOBEC-3G (Q9HC16 whole entry): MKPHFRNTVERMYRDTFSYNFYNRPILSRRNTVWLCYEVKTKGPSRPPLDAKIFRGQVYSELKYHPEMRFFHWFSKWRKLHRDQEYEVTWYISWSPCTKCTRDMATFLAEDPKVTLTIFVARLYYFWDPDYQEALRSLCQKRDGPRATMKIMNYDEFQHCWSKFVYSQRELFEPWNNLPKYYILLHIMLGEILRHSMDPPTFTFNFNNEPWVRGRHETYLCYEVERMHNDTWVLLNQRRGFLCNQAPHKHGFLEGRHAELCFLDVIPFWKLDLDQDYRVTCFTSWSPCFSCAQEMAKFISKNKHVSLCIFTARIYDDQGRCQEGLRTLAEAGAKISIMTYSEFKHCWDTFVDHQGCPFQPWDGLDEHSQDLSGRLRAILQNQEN
# Chain of Nonstructural protein 1 (Q194T2 whole entry): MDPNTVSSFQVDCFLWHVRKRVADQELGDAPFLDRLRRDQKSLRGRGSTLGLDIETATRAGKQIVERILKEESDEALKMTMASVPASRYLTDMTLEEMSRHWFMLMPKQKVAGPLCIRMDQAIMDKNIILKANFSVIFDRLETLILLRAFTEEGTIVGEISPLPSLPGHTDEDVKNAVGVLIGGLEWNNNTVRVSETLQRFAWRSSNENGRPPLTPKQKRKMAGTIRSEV
# Chain of FAD-linked sulfhydryl oxidase ALR (P55789 whole entry): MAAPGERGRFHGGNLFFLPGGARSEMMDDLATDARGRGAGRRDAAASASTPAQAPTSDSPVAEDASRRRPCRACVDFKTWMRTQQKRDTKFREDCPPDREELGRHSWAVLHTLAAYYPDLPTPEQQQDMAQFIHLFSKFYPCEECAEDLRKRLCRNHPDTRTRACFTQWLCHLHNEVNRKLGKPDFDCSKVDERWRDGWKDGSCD
# Chain of Beta-galactosidase (Q8VNN2 whole entry): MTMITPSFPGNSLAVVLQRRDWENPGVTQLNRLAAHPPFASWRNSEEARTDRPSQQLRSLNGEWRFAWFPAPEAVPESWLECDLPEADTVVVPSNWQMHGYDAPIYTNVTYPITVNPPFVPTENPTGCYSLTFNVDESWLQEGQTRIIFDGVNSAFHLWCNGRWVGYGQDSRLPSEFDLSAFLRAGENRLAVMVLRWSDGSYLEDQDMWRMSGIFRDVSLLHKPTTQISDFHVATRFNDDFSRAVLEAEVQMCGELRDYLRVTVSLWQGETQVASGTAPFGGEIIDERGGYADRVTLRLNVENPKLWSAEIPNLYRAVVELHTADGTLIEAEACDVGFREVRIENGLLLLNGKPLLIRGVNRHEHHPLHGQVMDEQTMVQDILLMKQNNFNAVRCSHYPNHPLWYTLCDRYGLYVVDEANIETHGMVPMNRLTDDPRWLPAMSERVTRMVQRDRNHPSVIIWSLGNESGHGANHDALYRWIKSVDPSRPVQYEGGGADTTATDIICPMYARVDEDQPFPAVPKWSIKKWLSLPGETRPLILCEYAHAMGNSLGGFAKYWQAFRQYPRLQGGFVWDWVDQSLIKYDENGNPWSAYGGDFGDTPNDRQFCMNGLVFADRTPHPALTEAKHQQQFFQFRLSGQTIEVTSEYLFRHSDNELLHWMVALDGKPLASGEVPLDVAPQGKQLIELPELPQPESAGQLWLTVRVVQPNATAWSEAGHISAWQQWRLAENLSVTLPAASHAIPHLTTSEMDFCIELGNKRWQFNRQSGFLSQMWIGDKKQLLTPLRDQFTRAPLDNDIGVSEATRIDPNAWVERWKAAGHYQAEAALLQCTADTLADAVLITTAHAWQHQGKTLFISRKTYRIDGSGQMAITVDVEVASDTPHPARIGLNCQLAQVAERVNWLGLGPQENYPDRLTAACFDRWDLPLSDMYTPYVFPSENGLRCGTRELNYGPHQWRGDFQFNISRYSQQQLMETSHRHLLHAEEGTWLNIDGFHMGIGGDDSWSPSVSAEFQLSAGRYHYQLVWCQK
smiles,measurement,setting,value
CN1CCN(CC(=O)N2CCn3c4c(c5cc(C6CCCCC6)ccc53)CCCC42)CC1 (stereo unspecified),EC50,[1],4.39 µM (active)
same,EC50,[2],> 150 µM (inconclusive)
same,IC50,Nonstructural protein 1,18.9 µM (active)
same,CC50,[3],6.93 µM (active)
same,EC50,HT-1080,14.7 µM (active)
same,EC50,[4],0.84 µM (active)
same,EC50,[5],3.56 µM (active)
same,IC50,[6],> 20 µM (inactive)
same,EC50,[7],> 38 µM (not active)
same,EC50,[8],3.99 µM (active)
same,IC50,Beta-galactosidase,> 66.6 µM (inactive)
same,EC50,[9],3.48 µM (active)
O=C(COc1ccccc1Cl)Nc1nnc(-c2ccc3c(c2)OCO3)o1,EC50,[10],3 µM (active)
CCOc1cc(/C=N/NC(=O)c2ccc(-c3csc(Nc4ccc(C)cc4)n3)cc2)ccc1OCC(=O)O,IC50,[11],50 µM (inactive)
same,IC50,[12],8.71 µM (active)
same,IC50,[13],3.93 µM (active)
same,IC50,[14],11.1 µM (active)
same,IC50,[15],4.68 µM (active)
same,IC50,[16],6.63 µM (active)
same,IC50,[17],7.29 µM (active)
same,IC50,[18],49.1 µM (active)
COc1cccc(/C=N/n2c(S)nnc2-c2cc(C)[nH]n2)c1O,IC50,Large T antigen,16 µM (active)
same,IC50,[19],> 100 µM (inactive)
same,AC50,[20],3.54 µM (active)
same,IC50,[21],4.07 µM (active)
Cc1cccc(/C=N/NC(=O)c2cc(Br)ccc2O)n1,EC50,[22],4.22 µM (active)
